Measured values reported in patent publication US9586928B2 (The Scripps Research Institute, priority 2011, dated 2017).

Columns and labels:
FXR = target: T1, FXR (Homo sapiens, UniProt Q96RI1); assay: Gal4-FXR / UAS luciferase cotransfection assay; format: cell-based; conditions: Gal4 chimeric cotransfection
T1 sequence (Q96RI1 262-486 limits assumed): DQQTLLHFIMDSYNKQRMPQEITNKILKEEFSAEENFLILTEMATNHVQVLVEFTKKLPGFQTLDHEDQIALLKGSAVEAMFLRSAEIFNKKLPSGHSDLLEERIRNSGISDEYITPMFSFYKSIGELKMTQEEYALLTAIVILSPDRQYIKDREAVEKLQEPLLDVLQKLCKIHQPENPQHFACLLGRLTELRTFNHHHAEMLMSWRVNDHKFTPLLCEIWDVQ
Experimental: Cotransfection assays were performed as previously described in HEK293 cells (Gal4 cotransfection assay or IL-17 luciferase reporter)[8]. HEK293 and the mouse lymphoma EL4 (ATCC) cells were maintained in DMEM supplemented with 10% FBS plus antibiotics (penicillin and streptomycin; Invitrogen).

VP16 = assay: Gal4 DBD-VP16 / UAS luciferase control assay; format: cell-based
Experimental: The cells were treated with either DMSO or various compounds as indicated four hours after replating. Following additional 20 hour incubation, luciferase levels were assayed by one-step addition of 20 μL BriteLite (Perkin Elmer) and read using an Envision multilabel plate reader (Perkin Elmer).

EL-4 cells = assay: Intracellular IL-17 in PMA/ionomycin stimulated EL-4 cells (flow cytometry); format: cell-based, murine; conditions: 5 μM, compared to vehicle treated cells
Experimental: The treatment of EL4 with SR2211 repressed the Il17 gene expression to a greater extent as compared to digoxin. […] In order to measure the effect of SR2211 on IL-17 production, we determined the intracellular levels of IL-17 using flow cytometry. After the stimulation of EL-4 cells with PMA/ionomycin for 3 hr, the cells were treated with BD GolgiPlug™ (protein transport inhibitor) to allow intracellular accumulation of cytokines. After 2 hr, the cells were fixed and stained to analyze the IL-17 by flow cytometry.
For intracellular cytokine staining, cells were stimulated with PMA (50 ng/Ml) and lonomycin (1 ug/ml) for 5 hrs. After 3 hrs of incubation, BD Golgiplug (BD Bioscience) was added and incubated for 2 hrs. Then, cells were fixed, permeabilized, and stained with PEIL17A Ab (BD Biosciences). Cell sorting was performed using LSRII (BD Biosciences). • 1. Ivanov, I I; McKenzie, B. S.; Zhou, L.; Tadokoro, C. E.; Lepelley, A.; Lafaille, J. J.; Cua, D. J.; Littman, D. R. (2006) The orphan nuclear receptor RORgammat directs the differentiation program of proinflammatory IL-17+ T helper cells. Cell 126, 1121-1133. • 2. Nakae, S.; Nambu, A.; Sudo. K.; Iwakura. Y. (2003) Suppression of immune induction of collagen-induced arthritis in IL-17-deficient mice. J Immunol 171, 6173-6177. • 3. Jetten. […]

## OC(c1ccc(-c2ccc(CN3CCN(Cc4ccncc4)CC3)cc2)c(F)c1)(C(F)(F)F)C(F)(F)F [SR2211, 1,1,1,3,3,3-hexafluoro-2-(2-fluoro-4′-((4-(pyridin-4-ylmethyl)piperazin-1-yl)methyl)-[1,1′-biphenyl]-4-yl)propan-2-ol]
FXR
  effect on transcriptional activity of FXR: no effect on the transcriptional activity of FXR
VP16
  luciferase activity of Gal4 DBD-VP16 (off-target effects/toxicity): no change in the luciferase activity of Gal4 DBD-VP16
EL-4 cells
  IL-17 intracellular staining: significant inhibition of IL-17 intracellular staining
